The subject of the test is Coptotermes acinaciformis. As to the kind of experiment: ensis mean mass loss test: laboratory termite bioassay of treated Pinus radiata specimens, eight weeks. The test is classed as in vivo. Conditions: 8 weeks exposure, mean of 6 replicates, SE in parentheses. The text has this:
Pinus radiata D. Don (Radiata pine) specimens (20×20×10 mm long) were cut from the sapwood of several pruned, fast-grown trees that had been harvested from the northern plantation forests of […], Australia. These samples are referred to as “ensis samples.” Trees were 20 to 24 years old. Specimens were pooled and randomly allocated into treatment groups. Prior to treatment, specimens were conditioned to 9.5% moisture content (m.c.). […] The solutions were used immediately. The following impregnation protocol was used: (the “ensis impregnation protocol”). Specimens were treated by drawing a vacuum of -95 kPa for 30 minutes, introducing the preservative solution while under vacuum, and immediately releasing the vacuum. Specimens were allowed to absorb the solution for 30 minutes atmospheric pressure. Each specimen was weighed before and immediately after treatment to determine retention. The specimens closest to the desired retentions were selected. Prior to bioassay against termites, all test specimens from each treatment were artificially weathered to H2 conditions by vacuum oven drying for three days at 40° C. and -95 kPa. After removal from the vacuum ovens, the specimens were cooled in a desiccator before being weighed to obtain initial masses. At each stage, care was taken to ensure that specimens of different treatments were kept separate. The weathering step removed from the specimens any volatiles that may be deleterious to termite health and vigor, as well as to provide artificial ageing. The test specimens were subjected to bioassay in accordance with the minimum requirements specified for H2 conditions in the Australasian Wood Preservation Committee Protocols for Assessment of Wood Preservatives (AWPC 1997), using one species of subterranean termite, Coptotermes acinaciformis. C. acinaciformis is widely distributed throughout mainland Australia and is responsible for greater economic loss that all other species of Australian termites combined (Gay and Calaby 1970). Only fresh, field collected stocks of termites were used for the bioassay. These termites were collected from the Northern Territory, transported by air to the Ensis Clayton laboratory and used promptly. Six replicate test specimens of each treatment were exposed to termites. A further three specimens were designated as vacuum oven controls. The following testing protocol was used (the “[…] loss test”). A single test specimen was centered on a 29 mm plastic disc to stop diffusion of boron out of the specimen. They were centrally placed on a moist matrix of C. acinaciformis finely ground mound material (20g, 100% m.c.) within a 250 ml glass jar (96 mm high, 62 mm diameter). Five grams of C. acinaciformis were added to each jar. A plastic lid, with a central 9 mm diameter ventilator, closed the jar (FIG. 1). The duration of the bioassay was eight weeks. The bioassay was conducted in an insectary maintained at 27° C., 70% RH. […] At the conclusion of the bioassay, test specimens were removed from the jars and cleaned. The test specimens, as well as vacuum oven controls, were then vacuum oven dried under the same conditions that were used to obtain the initial masses (i.e., 3 days at 40° C. and -95 kPa). After cooling and weighing the specimens, the final and initial masses were compared to obtain mass loss. If necessary, the mass loss of specimens exposed to termites was adjusted to accommodate any changes recorded in the vacuum oven controls.

Each structure is given as a SMILES string.

With `Cc1c(COC(=O)[C@@H]2[C@H](/C=C(\Cl)C(F)(F)F)C2(C)C)cccc1-c1ccccc1` (racemic) [bifenthrin], the Mean mass loss runs as follows: (target retention 2.5 g/m^3 bifenthrin) 15.6 (2.9) %; (target retention 5.0 g/m^3 bifenthrin) 4.8 (0.5) %; (target retention 7.5 g/m^3 bifenthrin) 4.2 (0.4) %.

Turning to `O.O.O.O.O=BOB1OB(OB=O)OB2OB([O-])OB([O-])OB(O1)O2.[Na+].[Na+]` [BAE, disodium octaborate tetrahydrate], the Mean mass loss by setting is: (target retention 0.1% BAE (% m/m in OD wood)) 93.5 (3.9) %; (target retention 0.2% BAE) 30.9 (5.3) %; (target retention 0.5% BAE) 48.6 (12.7) %.

Source of the values: patent US7666254B1, “Borate compositions for wood preservation” (Osmose, Inc., priority 2006, dated 2010).
